Results reported in patent US20180055856A1, “COMBINATION OF LOW DOSE 2-METHYLENE-19-NOR-(20S)-1ALPHA, 25-DIHYDROXYVITAMIN D3 AND CALCIMIMETICS TO TREAT SECONDARY HYPERPARATHYROIDISM” (Wisconsin Alumni Research Foundation, priority 2016, published 2018).
Values belong to the compound of their own block, whether it stands above or below them.

Legend:
vitamin D-deficient rats = assay: Serum calcium in vitamin D-deficient hyperparathyroid rats, dosing thrice weekly for nearly four weeks; format: in vivo, Sprague-Dawley rats
Description: Oral Formulations. Cinacalcet was weighed and mixed with ethanol (at least 21 mcL ethanol/mg cinacalcet) for approximately 10 minutes. After a clear solution was produced, the clear solution was mixed with an ethanolic solution of 2MD or vitamin D analog as a control. The two ethanolic solutions were mixed (approx. 15 min.) with Neobee oil so that there was no more than 14.1% of ethanol in the final dosing solution. Doses were delivered in a 0.75 mL/kg dose volume.
Intravenous Formulations. Etelcalcitide was weighed and mixed with propylene glycol (up to 5 mg etelcalcitide/ml propylene glycol) for approximately 1 minute. After a clear solution was produced ([…]), the clear solution was mixed with an ethanolic solution of 2MD or vitamin D analog as a control (no more than ˜0.6% ethanol in the final solution) for approximately 1 min. Doses were delivered in a 1 mL/kg dose volume.
Sprague-Dawley rats were made vitamin D-deficient and then placed on a high containing lactose (10%) and elevated levels of calcium (2%) and phosphorus (1.25%). After hyperparathyroidism was established in the rats, animals were administered cinacalcet or etelcalcitide, 2MD or the combination of the two thrice weekly for nearly four weeks. Blood was collected 48-72 hours after the last dose was given and PTH (Immutopics Intact PTH kit) and serum calcium (Perkin Elmer) measured. […]

[1] = system: MRL/MpJ-FAS^1pr (MRL/lpr) mouse model of systemic lupus erythematosus; settings: calcitriol administered through the diet; cited from earlier work

serum calcium, 2MD alone (vitamin D-deficient rats; 1 ng 2MD/kg bw): unaffected
Compound: C=C1[C@H](O)CC(=C/C=C2\CCC[C@@]3(C)C2CCC3[C@@H](C)CCCC(C)(C)O)C[C@H]1O (stereo partly drawn) [2MD, 2-methylene-19-nor-(20S)-1α,25-dihydroxyvitamin D3]

Compound: C=C1/C(=C\C=C2/CCC[C@]3(C)[C@@H]([C@H](C)CCCC(C)(C)O)CC[C@@H]23)C[C@@H](O)C[C@@H]1O [calcitriol, 1α,25-(OH)2D3]
hypercalcemia accompanying treatment [1]: severe hypercalcemia always accompanied this treatment
proteinuria [1]: completely prevents proteinuria

decrease of serum calcium, cinacalcet alone (vitamin D-deficient rats; cinacalcet alone): 0.5 mg%
Compound: C[C@@H](NCCCc1cccc(C(F)(F)F)c1)c1cccc2ccccc12 [cinacalcet, (R)—N-[1-(1-naphthyl)ethyl]-3-[3-(trifluoromethyl)phenyl] propan-1-amine]
